Type in all cases: cell-based
For one experiment, the target named is T1, human TLR7 (Homo sapiens, UniProt Q9NYK1).
T1 construct: host or cells: HEK-Blue cells
T1 sequence (Q9NYK1 27-1049): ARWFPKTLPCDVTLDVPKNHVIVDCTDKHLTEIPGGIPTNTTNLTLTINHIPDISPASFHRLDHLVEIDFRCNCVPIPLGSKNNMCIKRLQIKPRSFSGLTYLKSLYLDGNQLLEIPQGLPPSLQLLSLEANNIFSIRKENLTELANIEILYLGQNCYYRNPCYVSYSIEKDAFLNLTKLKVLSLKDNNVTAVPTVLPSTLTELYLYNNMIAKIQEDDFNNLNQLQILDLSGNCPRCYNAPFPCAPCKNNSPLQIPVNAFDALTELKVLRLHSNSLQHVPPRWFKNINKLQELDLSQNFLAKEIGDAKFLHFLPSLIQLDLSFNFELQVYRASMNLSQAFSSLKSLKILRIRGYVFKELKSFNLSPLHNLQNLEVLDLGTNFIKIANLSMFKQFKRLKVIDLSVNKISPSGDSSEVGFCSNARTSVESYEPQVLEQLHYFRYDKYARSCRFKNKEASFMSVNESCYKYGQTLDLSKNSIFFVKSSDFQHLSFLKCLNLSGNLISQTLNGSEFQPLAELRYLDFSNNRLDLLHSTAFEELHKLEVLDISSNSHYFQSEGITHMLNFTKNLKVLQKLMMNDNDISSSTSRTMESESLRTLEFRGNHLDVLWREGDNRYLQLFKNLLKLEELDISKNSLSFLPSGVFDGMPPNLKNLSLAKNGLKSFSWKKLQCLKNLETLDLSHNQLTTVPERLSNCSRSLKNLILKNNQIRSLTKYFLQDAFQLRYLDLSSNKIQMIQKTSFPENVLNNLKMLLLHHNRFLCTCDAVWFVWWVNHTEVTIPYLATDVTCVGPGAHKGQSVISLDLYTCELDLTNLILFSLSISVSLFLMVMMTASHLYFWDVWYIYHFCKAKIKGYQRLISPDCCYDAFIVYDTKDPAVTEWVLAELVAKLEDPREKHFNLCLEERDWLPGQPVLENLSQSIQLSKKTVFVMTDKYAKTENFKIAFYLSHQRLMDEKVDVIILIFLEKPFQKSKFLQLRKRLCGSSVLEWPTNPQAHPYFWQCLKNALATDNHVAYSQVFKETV
Description: TLR7 inhibition reporter assay (HEK-Blue cells, SEAP reporter, gardiquimod stimulation). Particulars: HEK-Blue cells overexpressing human TLR7, SEAP reporter, gardiquimod 7.5 μM. In a few lines:
(§1)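 HEK-Blue cells with NF-κB/AP-1-driven SEAP reporter, pre-treated 30 min at room temperature with compound (0.05 nM-50 μM). Stimulants: gardiquimod 7.5 μM (TLR7), R848 15.9 μM (TLR8) or ODN2006 5 nM (TLR9). SEAP measured after 22 h at 37° C.; percent inhibition versus agonist-plus-DMSO and known-inhibitor wells.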

In another experiment the target is T2, human TLR9 (Homo sapiens, UniProt Q9NR96).
T2 construct: host or cells: HEK-Blue cells
T2 sequence (Q9NR96 26-1032): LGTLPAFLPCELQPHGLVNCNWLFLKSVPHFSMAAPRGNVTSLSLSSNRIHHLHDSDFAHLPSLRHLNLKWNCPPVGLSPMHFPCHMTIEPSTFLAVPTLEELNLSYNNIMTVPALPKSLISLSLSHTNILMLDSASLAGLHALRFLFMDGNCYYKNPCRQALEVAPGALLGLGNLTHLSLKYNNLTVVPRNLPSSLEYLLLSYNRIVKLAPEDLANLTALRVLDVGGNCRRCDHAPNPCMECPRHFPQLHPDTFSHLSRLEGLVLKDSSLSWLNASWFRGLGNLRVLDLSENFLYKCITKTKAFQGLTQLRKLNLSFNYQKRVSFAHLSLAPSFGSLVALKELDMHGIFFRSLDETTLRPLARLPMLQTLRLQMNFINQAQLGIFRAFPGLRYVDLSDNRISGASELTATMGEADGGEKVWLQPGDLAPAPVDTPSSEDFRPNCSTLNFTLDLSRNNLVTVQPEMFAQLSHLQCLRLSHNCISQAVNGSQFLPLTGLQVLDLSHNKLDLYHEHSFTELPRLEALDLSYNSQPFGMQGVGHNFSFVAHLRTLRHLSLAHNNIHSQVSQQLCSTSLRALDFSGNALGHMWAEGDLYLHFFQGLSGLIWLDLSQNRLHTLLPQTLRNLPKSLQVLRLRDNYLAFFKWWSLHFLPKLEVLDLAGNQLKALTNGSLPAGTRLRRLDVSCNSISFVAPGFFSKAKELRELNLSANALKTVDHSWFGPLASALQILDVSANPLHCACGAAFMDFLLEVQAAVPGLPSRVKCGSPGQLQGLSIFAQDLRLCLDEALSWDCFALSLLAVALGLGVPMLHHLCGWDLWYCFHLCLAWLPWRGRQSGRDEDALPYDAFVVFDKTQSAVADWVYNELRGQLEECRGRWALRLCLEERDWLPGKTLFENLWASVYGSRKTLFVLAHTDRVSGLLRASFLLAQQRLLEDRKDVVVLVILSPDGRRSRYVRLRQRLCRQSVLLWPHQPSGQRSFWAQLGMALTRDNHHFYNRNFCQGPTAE
Description: TLR9 inhibition reporter assay (HEK-Blue cells, SEAP reporter, ODN2006 stimulation). As to conditions: HEK-Blue cells overexpressing human TLR9, SEAP reporter, ODN2006 5 nM. In a few lines:
as §1

The next experiment deals with T3, human TLR8 (Homo sapiens, UniProt Q9NR97).
T3 construct: host or cells: HEK-Blue cells
T3 sequence (Q9NR97 27-1041): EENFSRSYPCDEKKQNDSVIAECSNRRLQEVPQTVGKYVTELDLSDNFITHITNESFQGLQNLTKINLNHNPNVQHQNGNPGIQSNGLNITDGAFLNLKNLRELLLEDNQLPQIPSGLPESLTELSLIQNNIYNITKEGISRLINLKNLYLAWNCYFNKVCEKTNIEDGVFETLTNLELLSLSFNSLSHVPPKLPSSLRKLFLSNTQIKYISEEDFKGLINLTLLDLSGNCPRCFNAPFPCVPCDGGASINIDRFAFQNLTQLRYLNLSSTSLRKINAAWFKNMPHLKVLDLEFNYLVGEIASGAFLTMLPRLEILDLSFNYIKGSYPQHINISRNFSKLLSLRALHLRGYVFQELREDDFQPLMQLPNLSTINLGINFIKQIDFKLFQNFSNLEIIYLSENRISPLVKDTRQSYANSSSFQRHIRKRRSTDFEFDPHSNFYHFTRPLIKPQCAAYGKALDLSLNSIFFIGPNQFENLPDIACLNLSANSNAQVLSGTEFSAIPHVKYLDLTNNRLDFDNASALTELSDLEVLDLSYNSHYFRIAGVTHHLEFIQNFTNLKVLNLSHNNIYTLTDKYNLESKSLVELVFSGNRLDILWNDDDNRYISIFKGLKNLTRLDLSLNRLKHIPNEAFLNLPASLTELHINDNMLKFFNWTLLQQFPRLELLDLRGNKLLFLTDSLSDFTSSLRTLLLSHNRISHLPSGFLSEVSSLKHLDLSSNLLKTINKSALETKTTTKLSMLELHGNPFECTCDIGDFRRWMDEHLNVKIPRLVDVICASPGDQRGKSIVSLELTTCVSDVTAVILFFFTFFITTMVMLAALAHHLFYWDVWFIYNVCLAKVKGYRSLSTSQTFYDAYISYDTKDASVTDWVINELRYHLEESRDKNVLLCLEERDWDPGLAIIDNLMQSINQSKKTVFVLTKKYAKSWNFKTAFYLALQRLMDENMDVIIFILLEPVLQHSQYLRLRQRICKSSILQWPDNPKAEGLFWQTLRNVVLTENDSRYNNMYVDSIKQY
Nature of the experiment: TLR8 inhibition reporter assay (HEK-Blue cells, SEAP reporter, R848 stimulation). Particulars: HEK-Blue cells overexpressing human TLR8, SEAP reporter, R848 15.9 μM. In a few lines: as §1

The values that follow come from US11878975B2, “Substituted indole compounds useful as TLR inhibitors” (BRISTOL-MYERS SQUIBB COMPANY, priority 2017, dated 2024).

Each structure is given as a SMILES string.

Consider `COc1cc(-c2[nH]c3ccc(C4CCC(N5CCOCC5)CC4)cc3c2C(C)C)cn2ncnc12` (stereo not drawn) [Example 69], for which the values for the concentration for half-maximal inhibition (IC50) on human TLR7, on human TLR9 and on human TLR8 were 0.22 nM, 1670 nM and 0.59 nM, respectively.
`COc1cc(-c2[nH]c3ccc(C4CCC(N5CCNC(=O)C5)CC4)cc3c2C(C)C)cn2ncnc12` (stereo not drawn) [Example 71]: the figures for the IC50 against human TLR7, at human TLR9 and against human TLR8 were 0.68 nM, 4410 nM and 2.7 nM, respectively.
For `COc1cc(-c2[nH]c3ccc(C4CCC(N5CC6(COC6)C5)CC4)cc3c2C(C)C)cn2ncnc12` (stereo not drawn) [Example 73] the same measures were 0.32 nM, 1590 nM and 0.58 nM.
For `COc1cc(-c2[nH]c3ccc(C4CCC(N(C)CC(F)F)CC4)cc3c2C(C)C)cn2ncnc12` (stereo not drawn) [Example 74] the same measures were 3 nM, 24500 nM and 13 nM.
For `COc1cc(-c2[nH]c3ccc(C4CCC(N(C)CCC(F)(F)F)CC4)cc3c2C(C)C)cn2ncnc12` (stereo not drawn) [Example 75] the same measures were 0.87 nM, 4760 nM and 2 nM.
In the case of `COc1cc(-c2[nH]c3ccc(C4CCC(N5CCOCC5)CC4)cc3c2C(C)C)cn2ncnc12` (stereo not drawn) [Example 76], the figures for the IC50 against human TLR7, on human TLR9 and against human TLR8 were 1 nM, 2250 nM and 5.7 nM, respectively.
On the same counts, the results for `COc1cc(-c2[nH]c3ccc(C4CCC(N5CCC5)CC4)cc3c2C(C)C)cn2ncnc12` (stereo not drawn) [Example 77] are 1 nM, 1920 nM and 3.1 nM.
For the molecule `COc1cc(-c2[nH]c3ccc(C4CCC(N5CCNC(=O)C5)CC4)cc3c2C(C)C)cn2ncnc12` (stereo not drawn) [Example 78], the half-maximal inhibitory concentration (IC50) against human TLR7 was found to be 3 nM; against human TLR9, 16800 nM; against human TLR8 it was 32 nM.
On to `COc1cc(-c2[nH]c3ccc(C4CCC(N5CC6(COC6)C5)CC4)cc3c2C(C)C)cn2ncnc12` (stereo not drawn) [Example 80], for which the 50% inhibitory concentration (IC50) was determined as 0.85 nM against human TLR7, 1440 nM at human TLR9 and 2.1 nM against human TLR8.
On the same counts, the results for `COc1cc(-c2[nH]c3ccc(C4CCC(N(C)CC(F)F)CC4)cc3c2C(C)C)cn2ncnc12` (stereo not drawn) [Example 81] are 17 nM, 25500 nM and 104 nM.
For `COc1cc(-c2[nH]c3ccc(C4CCC(N(C)CCC(F)(F)F)CC4)cc3c2C(C)C)cn2ncnc12` (stereo not drawn) [Example 82] the same measures were 7 nM, 5770 nM and 23 nM.
For `CCN(C)C1CCC(c2ccc3[nH]c(-c4cn5ncnc5c(C)c4C)c(C(C)C)c3c2)CC1` (stereo not drawn) [Example 87] the same measures were 0.32 nM, 1910 nM and 0.63 nM.
With `CCN(C)C1CCC(c2ccc3[nH]c(-c4cn5ncnc5c(C)c4C)c(C(C)C)c3c2)CC1` (stereo not drawn) [Example 88], the IC50 was found to be 2 nM against human TLR7, 1980 nM against human TLR9 and 4.7 nM at human TLR8.
On the same counts, the results for `CNC1CCC(c2ccc3[nH]c(-c4cn5ncnc5c(C)c4C)c(C(C)C)c3c2)CC1` (stereo not drawn) [Example 89] are 0.23 nM, 1320 nM and 0.58 nM.
Take `COc1cc(-c2[nH]c3ccc(C4CCC(NC5COC5)CC4)cc3c2C(C)C)cn2ncnc12` (stereo not drawn) [Example 90]: the IC50 came to 0.48 nM against human TLR7, 1790 nM against human TLR9 and 1.7 nM against human TLR8.
For `CNC1CCC(c2ccc3[nH]c(-c4cn5ncnc5c(C)c4C)c(C(C)C)c3c2)CC1` (stereo not drawn) [Example 91] the same measures were 0.86 nM, 2700 nM and 2.7 nM.
For `Cc1c(-c2[nH]c3ccc(C4CCC(N5CC6(COC6)C5)CC4)cc3c2C(C)C)cn2ncnc2c1C` (stereo not drawn) [Example 95] the same measures were 2 nM, 1820 nM and 3.6 nM.
For the molecule `COc1cc(-c2[nH]c3ccc(C4CCC(N5CC6(COC6)C5)CC4)cc3c2C(C)C)cn2ncnc12` (stereo not drawn) [Example 96], the results for the IC50 against human TLR7, against human TLR9 and against human TLR8 were 2 nM, 1740 nM and 3.3 nM, respectively.
On the same counts, the results for `COc1cc(-c2[nH]c3ccc(C4CCC(N(C)OC)CC4)cc3c2C(C)C)cn2ncnc12` (stereo not drawn) [Example 99] are 7 nM, 15300 nM and 53 nM.
On to `COc1cc(-c2[nH]c3ccc(C4CCC(N(C)OC)CC4)cc3c2C(C)C)cn2ncnc12` (stereo not drawn) [Example 100], for which the IC50 amounted to 32 nM on human TLR7, 14600 nM against human TLR9 and 431 nM against human TLR8.
Take `Cc1cc(-c2[nH]c3ccc(C4CCC(N5CCOCC5)CC4)cc3c2C(C)C)cn2ncnc12` (stereo not drawn) [Example 102]: the results for the IC50 at human TLR7, against human TLR9 and against human TLR8 were 0.23 nM, 1890 nM and 0.71 nM, respectively.
Take `Cc1cc(-c2[nH]c3ccc(C4CCC(N5CCOCC5)CC4)cc3c2C(C)C)cn2ncnc12` (stereo not drawn) [Example 103]: the concentration for half-maximal inhibition (IC50) on human TLR7 worked out at 2 nM; against human TLR9, 4120 nM; against human TLR8 it was 7.4 nM.
